Data reported in US10945972B2, “Particulate materials” (Nektar Therapeutics, priority 2002, dated 2021).
Blank lines part the entries; values can stand above or below the compound they belong to.

Tests used:
[1] = Particle size by AeroSizer time-of-flight (Example 1); type: physicochemical; settings: aerodynamic-equivalent volume mean diameter
Experimental: (§1) PSD measurements were performed using firstly, AEROSIZER® time-of-flight instrument equipped with AERO-[…]® (TSI Inc., Minneapolis. USA) and secondly, laser diffraction sensor Helos with dry-powder air-dispersion system Rodos (Sympatec GmbH. Germany). The volume mean particle diameter, VMD, was obtained for both instruments using software options. In the general case of non-spherical particles, these instruments cannot provide the exact value of VMD, however, the time-of-flight technique gives an aerodynamic-equivalent particle diameter, whereas the laser diffraction method provides the geometric projection-equivalent diameter. These diameters afford the complementary information on PSD and therefore can be used for comparative size analysis.

[2] = Particle size by Helos/Rodos laser diffraction (Example 1); type: physicochemical; settings: geometric projection-equivalent volume mean diameter
Experimental: as §1

[3] = Inverse gas chromatography surface energy (Example 1); type: physicochemical; settings: 303K
Description: For TBS and FHBr powders, IGC was done using a Hewlett Packard Series 6890 instrument which was specifically modified for IGC measurements by Surface Measurement Systems Ltd (Manchester, UK). The IGC method is described in detail by Tong et al. 2001. (Tong H. H. Y., B. Y. Shekunov, P. York, A. H. L. Chow, 2001. Pharm. Res. 18, 852.) Triplicate measurements in separate packed columns were made. […] The γS^D and ΔGA values were obtained at 303K.

[4] = BET nitrogen adsorption specific surface area (Example 2); type: physicochemical; settings: listed as M-SX
Experimental: Data on specific surface areas required for IGC studies were determined by BET nitrogen adsorption using a Surface Area Analyzer Coulter SA 3100 (Coulter Corp., Miami, Fla., USA). Samples were placed in glass sample holders and out-gassed with helium (purity >99.999%) at 40° C. for 16 hours before analysis. Nitrogen (purity >99.999%) was used as adsorbate and BET surface area was recorded as specific surface area of the samples. All measurements were performed in triplicate using the same batch of each material.

[5] = Laser diffraction particle size analysis HELOS/RODOS (Example 2); type: physicochemical; settings: listed as M-SX
Experimental: The instrument consisted of laser diffraction sensor HELOS and dry-powder air-dispersion system RODOS (Sympatec GmbH. Germany) with WINDOX OS computer interface. The dispersion process was controlled by means of adjusting pressure of the compressed air flow between 0.5 and 5 bar. […] All measurements were performed in triplicate. The particle shape factor, f, was calculated as f=Sv/Sv*. where Sv is the experimental specific surface area and Sv* is the specific surface area determined using the LD instrument assuming the particle sphericity.

[6] = Triboelectrification in turbula mixer, charge and adhesion; type: physicochemical; settings: listed as M-SX
Experimental: (§2) Triboelectrification was undertaken against a stainless steel contact surface using either a turbula mixer or a cyclone separator. Triboelectrification in a turbula mixer (Glen Creston, UK) was carried out by agitating a powder sample for 5 minutes at 30 rpm in a 100 ml stainless steel vessel at ambient temperature and relative humidity. A sample was poured in a reproducible manner into a Faraday well connected to an electrometer (Keithley 610, Keithley Instruments, Reading, UK). Charge and mass of sample was then recorded to give specific charge before and after triboelectrification. % w/w adhesion to the inner surface of the mixing vessel was calculated from the original mass of sample and the mass of sample poured into the Faraday well. During triboelectrification in a cyclone separator, a powder was fed from a steel vibratory table into a venturi funnel. Compressed air (velocity 8 m/s. relative humidity below 10%, ambient temperature) was used to convey the powder from the venturi along a horizontal pipe into the cyclone separator. The Faraday well and force compensation load cell was fitted at the base of the cyclone and used to collect charged particles. Final specific charge was recorded for non-adhered powder residing in the Faraday well and, where possible, powder adhering to the cyclone wall was dislodged by a stream of air and its charge and mass recorded. In both cases, the results were obtained from triplicate measurements.

[7] = Triboelectrification in cyclone separator, charge and adhesion; type: physicochemical; settings: listed as M-SX
Experimental: as §2

[8] = Bulk powder density (Example 2); type: physicochemical; settings: listed as M-SX
[9] = Inverse gas chromatography of SX powders (Example 2); settings: listed as M-SX
[10] = Electrostatic charge in Faraday well (Example 3); type: physicochemical
Description: Surface charge was examined by placing weighed portions of the samples in a Faraday well to measure their electrostatic charge.

[11] = Simple adhesion test in rotated glass jar (Example 3); type: physicochemical; settings: glass jar rotated for 5 minutes
Experimental: In this test, a small quantity of powder was weighed into a screw topped glass jar and the jar rotated for 5 minutes. The non-adhering powder was then tipped from the jar and weighed and the percentage powder adhering to the walls of the jar calculated.

[12] = Laser diffraction HELOS/RODOS of TBS (Example 8); type: physicochemical; settings: 2 bar
Experimental: A small amount of TBS powder was analysed using a laser diffraction RODOS/VIBRI dispersing system (HELOS/RODOS, Sympatec GmbH, Clausthal-Zellerfeld, Germany). The instrument consisted of a laser sensor HELOS and a RODOS dry-powder air-dispersion system (Sympatec GmbH, Clausthal-Zellerfeld, Germany). Different measurement ranges of the laser sensor were provided by interchangeable objectives R1 (0.1-35 μm) and R2 (0.25-87.5 μm). The rate of powder dispersion was controlled by adjusting the pressure of the compressed air flow. A pressure of 2 bar was sufficient to achieve deagglomeration of primary particles without attrition.

[13] = AEROSIZER time-of-flight of TBS (Example 8); type: physicochemical
Experimental: The TBS samples were also analysed using an AEROSIZER™ (Amherst Process Instruments, Amherst, Mass., USA), provided with pulse jet disperser, the AERODISPERSER™, to introduce the powders to the instrument. The measurement range of the AEROSIZER™ is nominally from 0.2 to 200 μm of aerodynamic diameter with the standard 750 μm diameter tapered nozzle. The micronized and SEDS™ TBS samples were analyzed for 300 seconds in triplicate using normal deagglomeration conditions, feed rate (5000 particles per second) and medium shear force (0.5 psi).

[14] = Differential scanning calorimetry (Example 8); type: physicochemical; settings: DSC, 10° C. min^−1
Experimental: Prior to sample analysis, a baseline was obtained which was used as a background. […] Temperature and enthalpy were calibrated with the standard materials indium (melting point=156.6° C.) and zinc (melting point=419.5° C.). Samples (1-10) were accurately weighed into pierced, crimped aluminium pans and heated at 10° C. min^−1 over a heating range of 25-290° C. under a nitrogen purge. A chiller unit was used in conjunction with the calorimeter to attain the lower temperatures.

[15] = Inverse gas chromatography of TBS (Example 8); type: physicochemical
Experimental: An empty GC column was uniformly packed with the powder of interest (TBS). Pre-silanized commercially available straight glass columns of 30 cm length with a 3 mm internal diameter were used in this investigation. The silanation procedure was necessary to minimize active sites on the inner glass surfaces, which strongly interact with polar probes. Each column was packed at the detector end with a small amount of silanised glass wool, was clipped to a stand and powder was added through a glass funnel with the aid of a mechanical column packer (tapping) to improve powder flow and remove any air gaps. […] A. Hewlett Packard 6890 Series Gas Chromatograph (GC) (Hewlett Packard, Penna, USA) oven equipped with an autosampler was used to control the solvent temperature. The 6890 GC data acquisition system was used to record data from a thermal conductivity detector (TCD) and flame ionisation detector (FID) with the instrument modified for IGC by Surface Measurement Systems (SMS), Manchester, UK. The combination of detectors allowed sensitive analysis of both organic vapour elution and water (although RH was not raised above 0% for these experiments).
The whole system was fully automated by control software (SMS iGC Controller v1.3) and the data analyzed using SMS iGC Analysis macros. Prior to analysis, each column was equilibrated at 30° C. and 0% relative humidity (RH) for 5 hours by passing dry helium gas through the column. Helium gas was also used as the carrier gas. Hydrogen and compressed air flow rates were set at 40 and 450 ml min respectively for the FID. The chromatograph injection port was maintained at 80° C., TCD detector at 150° C. and the FID detector at 150° C. Column temperature was set at 30° C. throughout analysis. Data were obtained by flowing helium gas at 10 ml min^−1 through the sinalized glass column packed with a known weight of powdered material and injecting small amounts (concentration P/Po=0.05) of a range of probe vapors with different polarities. The retention times of the probes were measured using SMS iGC Controller v1.3 software, at infinite dilution or near zero surface coverage (equivalent to 10^−4-10^−7 μl of liquid) where retention is independent of the quantity of probe injected. For each sample, two columns were prepared and analysed by employing a method based on standard settings, which allows the precise control and measurement of experimental variables. This is essential in producing meaningful results. The data were used to calculate the dispersive and non-dispersive forces acting at TBS particle surfaces using the method developed by Schultz and co-workers (J. Schultz, L. Lavielle and C. Martin. The role of the interface in carbon fibre-epoxy composites, J. Adhesion, 23, 45-60 (1987)).

- VMD (μm) (Time of flight) [1]: 1.2 μm
- VMD (μm) (laser diffraction) [2]: 1.69 μm
- γs^D (mJ/m^2) [3]: 40.49 mJ/m^2
- ΔGA (kJ/mol) Acetone ([3]; probe acetone): 15.24 kJ/mol
- ΔGA (kJ/mol) Chloroform ([3]; probe chloroform): 14.78 kJ/mol
- ΔGA (kJ/mol) Diethyl ether ([3]; probe diethyl ether): 14.20 kJ/mol
- ΔGA (kJ/mol) Ethyl acetate ([3]; probe ethyl acetate): 17.46 kJ/mol
- SV (specific surface area) [4]: 9.243
- mean particle size d4,3 ([5]; LD technique): 1.8 μm
- f (particle shape factor, f=Sv/Sv*) [5]: 2.80
- Q (nCg^−1) After mixing ([6]; 5 minutes at 30 rpm): −42.6 nCg^−1
- AD (% w/w), fraction of adhered material [6]: 27 % w/w
- Q (nCg^−1) Before mixing [6]: −12.1 nCg^−1
- AD (% w/w), fraction of adhered material [7]: 16.7 % w/w
- Q (nCg^−1) After mixing [7]: −49.7 nCg^−1
- Q (nCg^−1) Before mixing [7]: −48.4 nCg^−1
- bulk powder density [8]: 0.5 g/mL
- KA ([9]; acidity parameter): 0.172
- γs^D (mJ/m^2) ([9]; column at 40° C.): 38.285 mJ/m^2
- −ΔGA^SP (kJ/mol) Acetone ([9]; probe acetone): 4.560 kJ/mol
- −ΔGA^SP (kJ/mol) Chloroform ([9]; probe chloroform): 0.810 kJ/mol
- −ΔGA^SP (kJ/mol) Diethyl ether ([9]; probe diethyl ether): 2.774 kJ/mol
- −ΔGA^SP (kJ/mol) Ethyl acetate ([9]; probe ethyl acetate): 3.995 kJ/mol
- −ΔGA^SP (kJ/mol) Tetrahydrofuran ([9]; probe tetrahydrofuran): 3.609 kJ/mol
Compound: OCc1cc(C(O)CNCCCCCCOCCCCc2ccccc2)ccc1O (centres unmarked) [SX Micronised, salmeterol xinafoate, reference compound]

- Electrostatic Charge (nC/g) [10]: −42.6 nC/g
- Relative Powder Adhesion (to container walls) [11]: 18.6
- Sympatec D4, 3 (μm) [12]: 3.04 μm
- Aerosizer D4, 3 (μm) [13]: 2.69 μm
- Enthalpy of Fusion [14]: 121.76 J/g
- KA [15]: 0.892
- γs^D mJm^−2 ([15]; 30° C., 0% RH): 58.61 mJm^−2
- −ΔGA^SP (kJ/mol) Acetone ([15]; probe acetone): 12.57 kJ/mol
- −ΔGA^SP (kJ/mol) Chloroform ([15]; probe chloroform): 1.79 kJ/mol
- −ΔGA^SP (kJ/mol) Dioxane ([15]; probe dioxane): 15.96 kJ/mol
- −ΔGA^SP (kJ/mol) Ethyl acetate ([15]; probe ethyl acetate): 16.01 kJ/mol
- −ΔGA^SP (kJ/mol) Toluene ([15]; probe toluene): 3.42 kJ/mol
Compound: salbutamol sulphate [Micronised, reference compound]

- Electrostatic Charge (nC/g) [10]: −0.2 nC/g
- Relative Powder Adhesion (to container walls) [11]: 1.0
Compound: salbutamol sulphate [SEDS]
